Reference: patent publication US10160785B2, “Antimicrobial peptides and their use for the treatment of topical infections” (priority 2015, dated 2018)
Where a SMILES comes first, the peptide text is derived from it.

Columns and labels:
[1] = in vitro; conditions: human
Procedure, shortened: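 Hemolysis expressed as LC50, the concentration giving 50% erythrocyte lysis. Supernatant A540 was scaled between buffer-only blank and 0.2% Triton X100 total lysis after 1 h, 37 °C exposure of 5% v/v human red cells to 2-200 μmol.l^−1 peptide in physiological solution.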

[2] = tested on: Candida albicans (Olomouc); assay: microbe, parasite or virus in culture; format: cell-based; conditions: RPMI broth microdilution, 35° C., 48 hours, visual
Procedure, shortened: (§1)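 RPMI 1640/0.165 M MOPS microdilution; peptides 0.625–160 μmol.l^−1 as pipetted; final 5×10^2–2.5×10^3 CFU/ml; 35 °C, static, 48 h; visual MIC = no-growth endpoint.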

[3] = tested on: Candida albicans ATCC MYA-2876; assay: microbe, parasite or virus in culture; format: cell-based; conditions: RPMI broth microdilution, 35° C., 48 hours, visual
Procedure, shortened: as §1

[4] = tested on: Candida dubliniensis ATCC MYA-646; assay: microbe, parasite or virus in culture; format: cell-based; conditions: RPMI broth microdilution, 35° C., 48 hours, visual
Procedure, shortened: as §1

[5] = tested on: Candida glabrata ATCC 2001; assay: microbe, parasite or virus in culture; format: cell-based; conditions: RPMI broth microdilution, 35° C., 48 hours, visual
Procedure, shortened: as §1

[6] = tested on: Candida glabrata DSY 565; assay: microbe, parasite or virus in culture; format: cell-based; conditions: RPMI broth microdilution, 35° C., 48 hours, visual
Procedure, shortened: as §1

[7] = tested on: Candida krusei ATCC 6258; assay: microbe, parasite or virus in culture; format: cell-based; conditions: RPMI broth microdilution, 35° C., 48 hours, visual
Procedure, shortened: as §1

[8] = tested on: Candida tropicalis ATCC 750; assay: microbe, parasite or virus in culture; format: cell-based; conditions: RPMI broth microdilution, 35° C., 48 hours, visual
Procedure, shortened: as §1

[9] = tested on: P. aeruginosa (Liberec) biofilm; assay: Bacterial biofilm, remaining metabolic activity (MTT); format: cell-based, Pseudomonas aeruginosa; conditions: remaining metabolic activity of biofilm, 20 h
Procedure, shortened: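 Biofilms of S. aureus or P. aeruginosa (Liberec) were grown 24 h at 37° C with shaking in BHI plus 1% glucose from ca. 10^8 CFU/ml inocula. After washing, biofilms were exposed 20 h to peptides at 1–128 μmol.l^−1. Surviving metabolic activity was measured by MTT (40 min, formazan in DMSO, A540) as percent of untreated biofilm, blank-corrected.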

**Q.** For CCCC[C@H](NC(=O)[C@H](CC(C)C)NC(=O)[C@H](CO)NC(=O)[C@H](CO)NC(=O)[C@H](CCCC)NC(=O)[C@@H](NC(=O)CN)[C@@H](C)CC)C(=O)N[C@@H](CCCCN)C(=O)N[C@@H](CCCCN)C(=O)N[C@@H](CC(C)C)C(=O)N[C@@H](CCCCN)C(=O)N[C@@H](CCCCN)C(=O)N[C@H](C(=O)N[C@H](C(=O)N[C@@H](C)C(=O)N[C@@H](CCCCN)C(N)=O)[C@@H](C)CC)[C@@H](C)CC [V] (HELM PEPTIDE1{G.I.[Nle].S.S.L.[Nle].K.K.L.K.K.I.I.A.K.[am]}$$$$V2.0), which HC50 at 1 h [1] is on record?
**A.** 373 µM

**Q.** What about the “Antifungal activity MIC C. albicans Olomouc” value [2] of the same compound?
**A.** 12.0 µM

**Q.** And the “Antifungal activity MIC C. albicans ATCC MYA-2876” value [3]?
**A.** 19.0 µM

**Q.** And the “Antifungal activity MIC C. dubliniensis ATCC MYA-646” value [4]?
**A.** 26.0 µM

**Q.** What about the “Antifungal activity MIC C. glabrata ATCC 2001” value [5] of the same compound?
**A.** 24.0 µM

**Q.** What about the “Antifungal activity MIC C. glabrata DSY 565” value [6] of the same compound?
**A.** 44.0 µM

**Q.** And the “Antifungal activity MIC C. krusei ATCC 6258” value [7]?
**A.** 5.0 µM

**Q.** What about the “Antifungal activity MIC C. tropicalis ATCC 750” value [8] of the same compound?
**A.** 1.0 µM

**Q.** And the “Metabolic activity (%) P. aeruginosa (Liberec)” value ([9]; peptide concentration 8 μmol · l^−1)?
**A.** 65.5%

**Q.** What about the “Metabolic activity (%) P. aeruginosa (Liberec)” value ([9]; peptide concentration 16 μmol · l^−1) of the same compound?
**A.** 59.8%

**Q.** What about the “Metabolic activity (%) P. aeruginosa (Liberec)” value ([9]; peptide concentration 32 μmol · l^−1) of the same compound?
**A.** 64.9%

**Q.** What about the “Metabolic activity (%) P. aeruginosa (Liberec)” value ([9]; peptide concentration 64 μmol · l^−1) of the same compound?
**A.** 61.4%

**Q.** And the “Metabolic activity (%) P. aeruginosa (Liberec)” value ([9]; peptide concentration 128 μmol · l^−1)?
**A.** 49.3%
